Values joined by “and” are separate entries in the source; they are usually repeats but may differ in a detail not shown here. Identical values can stand only once. Inconclusive results and toxic doses are left out.

The assay relates to BDF1 mice, P388 leukemia ip, median survival T/C. The assay can be described thus: NCI In Vivo Anticancer Drug Screen. Data for tumor model P388 Leukemia (intraperitoneal) in B6D2F1 (BDF1) mice. The note with it: endpoint: median survival time, higher = longer survival. The gist of the method:
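Reported as T/C, where T is the survival measurement in dosed animals and C the same measurement in vehicle controls.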

The mark [1] stands for this setting: dose: 3.0 mg/kg/injection, schedule: Q04DX003 (ip), vehicle: saline.
[2] abbreviates: dose: 100.0 mg/kg/injection, schedule: Q04DX003 (ip), vehicle: saline.
Setting [3] is: dose: 200.0 mg/kg/injection, schedule: Q04DX003 (ip), vehicle: saline.
The mark [4] stands for this setting: dose: 25.0 mg/kg/injection, schedule: Q01DX009 (ip), vehicle: saline with Tween-80.
Setting [5] is: dose: 100.0 mg/kg/injection, schedule: Q01DX009 (ip), vehicle: saline with Tween-80.

As to `COc1ccc2nc3cc(Cl)ccc3c(Nc3ccc(O)c(CN(CCCl)CCCl)c3)c2c1`, the T/C runs as follows: (dose: 0.06 mg/kg/injection, schedule: Q01DX009 (ip), vehicle: saline with Tween-80) 105 % of control; (dose: 0.09 mg/kg/injection, schedule: Q01DX009 (ip), vehicle: saline with Tween-80) 99 % of control; (dose: 0.13 mg/kg/injection, schedule: Q01DX009 (ip), vehicle: saline with Tween-80) 89 % of control; (dose: 0.22 mg/kg/injection, schedule: Q04DX003 (ip), vehicle: saline) 100 % of control; (dose: 0.33 mg/kg/injection, schedule: Q04DX003 (ip), vehicle: saline) 118 % of control; (dose: 0.5 mg/kg/injection, schedule: Q01DX009 (ip), vehicle: saline) 177 % of control. The T/C is, setting by setting: (dose: 1.0 mg/kg/injection, schedule: Q01DX009 (ip), vehicle: saline) 163 % of control; (dose: 1.0 mg/kg/injection, schedule: Q04DX003 (ip), vehicle: saline) 159 % of control; (dose: 1.33 mg/kg/injection, schedule: Q04DX003 (ip), vehicle: saline) 154 % of control; (dose: 2.0 mg/kg/injection, schedule: Q01DX009 (ip), vehicle: saline) 104 % of control; (dose: 2.0 mg/kg/injection, schedule: Q04DX003 (ip), vehicle: saline) 158 % of control and 181 % of control; under setting [1], 158 % of control and 179 % of control. Moreover, the T/C by setting is: (dose: 4.5 mg/kg/injection, schedule: Q04DX003 (ip), vehicle: saline) 195 % of control; (dose: 6.7 mg/kg/injection, schedule: Q04DX003 (ip), vehicle: saline) 179 % of control; (dose: 10.0 mg/kg/injection, schedule: Q04DX003 (ip), vehicle: saline) 183 % of control.

Regarding `Cc1ccc(NS(=O)(=O)c2ccc(Br)cc2)c(C)c1`, the T/C is, setting by setting: (dose: 100.0 mg/kg/injection, schedule: Q04DX003 (ip), vehicle: saline with Tween-80) 100 % of control; (dose: 200.0 mg/kg/injection, schedule: Q04DX003 (ip), vehicle: saline with Tween-80) 100 % of control; (dose: 400.0 mg/kg/injection, schedule: Q04DX003 (ip), vehicle: saline with Tween-80) 104 % of control.

Consider `Cc1ccc(S(=O)(=O)c2ccc(S(=O)(=O)c3ccc(C)cc3)c3c2no[n+]3[O-])cc1`, for which the T/C by setting is: (dose: 15.0 mg/kg/injection, schedule: Q01DX009 (ip), vehicle: saline with Tween-80) 107 % of control; (dose: 30.0 mg/kg/injection, schedule: Q01DX009 (ip), vehicle: saline with Tween-80) 112 % of control; (dose: 60.0 mg/kg/injection, schedule: Q01DX009 (ip), vehicle: saline with Tween-80) 112 % of control.

For the compound `CCCC1CC[N-]CC1.CCCC1CC[N-]CC1.CCCC1CC[N-]CC1.CCCC1CC[N-]CC1.[Cl][Rh][Cl]`, the T/C (dose: 0.35 mg/kg/injection, schedule: Q01DX009 (ip), vehicle: saline) was 122 % of control; the T/C (dose: 0.53 mg/kg/injection, schedule: Q01DX009 (ip), vehicle: saline) is 123 % of control; the T/C (dose: 0.8 mg/kg/injection, schedule: Q01DX009 (ip), vehicle: saline) was 119 % of control; the T/C (dose: 3.0 mg/kg/injection, schedule: Q01DX009 (ip), vehicle: Klucel (hydroxypropylcellulose) (HPC)) was 86 % of control.

Regarding `CN(C)P(Cl)(Cc1ccccc1)(c1ccccc1)c1ccccc1`, the T/C was 108 % of control (dose: 3.0 mg/kg/injection, schedule: Q01DX009 (ip), vehicle: saline); 110 % of control under setting [1]; 116 % of control and 122 % of control (dose: 6.0 mg/kg/injection, schedule: Q01DX009 (ip), vehicle: saline); 105 % of control (dose: 6.0 mg/kg/injection, schedule: Q04DX003 (ip), vehicle: saline); 110 % of control (dose: 12.0 mg/kg/injection, schedule: Q04DX003 (ip), vehicle: saline).

On to `CC1(C#N)CCc2c(ccc3ccccc23)C1=O` (stereo unspecified), for which the T/C runs as follows: (dose: 50.0 mg/kg/injection, schedule: Q04DX003 (ip), vehicle: other) 91 % of control; (dose: 100.0 mg/kg/injection, schedule: Q04DX003 (ip), vehicle: other) 95 % of control; (dose: 200.0 mg/kg/injection, schedule: Q04DX003 (ip), vehicle: other) 100 % of control.

In the case of `CC1CC[N-]CC1.CC1CC[N-]CC1.CC1CC[N-]CC1.CC1CC[N-]CC1.O=C([O-])C(=O)[O-].O=C([O-])C(=O)[O-].[Nb+5].[O-][O-].[O-][O-].[Pt+4]`, the T/C (dose: 0.39 mg/kg/injection, schedule: Q01DX009 (ip), vehicle: saline) is 106 % of control; the T/C (dose: 0.78 mg/kg/injection, schedule: Q01DX009 (ip), vehicle: saline) is 102 % of control; the T/C (dose: 1.56 mg/kg/injection, schedule: Q01DX009 (ip), vehicle: saline) is 115 % of control; the T/C (dose: 3.12 mg/kg/injection, schedule: Q01DX009 (ip), vehicle: saline) was 102 % of control.

With `COc1ccc(CN(CCO)C(C)=O)cc1`, the T/C is 102 % of control (dose: 100.0 mg/kg/injection, schedule: Q01DX009 (ip), vehicle: saline); 100 % of control under setting [2]; 109 % of control (dose: 200.0 mg/kg/injection, schedule: Q01DX009 (ip), vehicle: saline); 100 % of control under setting [3]; 115 % of control (dose: 400.0 mg/kg/injection, schedule: Q01DX009 (ip), vehicle: saline); 95 % of control (dose: 400.0 mg/kg/injection, schedule: Q04DX003 (ip), vehicle: saline).

Consider `Nc1nc(N)c2cc(NCc3ccc(Br)cc3)ccc2n1`, for which the T/C is 105 % of control (dose: 3.12 mg/kg/injection, schedule: Q01DX009 (ip), vehicle: Klucel (hydroxypropylcellulose) (HPC)); 100 % of control (dose: 6.25 mg/kg/injection, schedule: Q01DX009 (ip), vehicle: Klucel (hydroxypropylcellulose) (HPC)); 95 % of control (dose: 12.5 mg/kg/injection, schedule: Q01DX009 (ip), vehicle: Klucel (hydroxypropylcellulose) (HPC)).

In the case of `Cc1c(-c2ccccc2)cc(O)cc1-c1ccccc1`, the T/C was 101 % of control (dose: 12.5 mg/kg/injection, schedule: Q04DX003 (ip), vehicle: saline); 97 % of control and 114 % of control (dose: 25.0 mg/kg/injection, schedule: Q04DX003 (ip), vehicle: saline); 102 % of control (2×) and 112 % of control (dose: 50.0 mg/kg/injection, schedule: Q04DX003 (ip), vehicle: saline); 88 % of control and 109 % of control under setting [2]; 93 % of control (dose: 150.0 mg/kg/injection, schedule: Q04DX003 (ip), vehicle: saline); 93 % of control and 101 % of control and 102 % of control under setting [3].

Regarding `Cc1ccc2c(c1)N=C(Nc1ccccc1)N=S2(C)=O` (stereo unspecified), the T/C is, setting by setting: under setting [4], 123 % of control; under setting [5], 160 % of control.

Take `C=CCOCC(O)CN(CCCC)CCCC` (stereo unspecified): the T/C (dose: 12.5 mg/kg/injection, schedule: Q01DX009 (ip), vehicle: saline with Tween-80) is 95 % of control; the T/C under setting [4] was 95 % of control; the T/C (dose: 50.0 mg/kg/injection, schedule: Q01DX009 (ip), vehicle: saline with Tween-80) is 105 % of control.

As for `CCOc1ccn(CC(=O)N2CCOCC2)c(=O)n1`, the T/C was 103 % of control (dose: 100.0 mg/kg/injection, schedule: Q01DX009 (ip), vehicle: water); 105 % of control (dose: 200.0 mg/kg/injection, schedule: Q01DX009 (ip), vehicle: water); 97 % of control (dose: 400.0 mg/kg/injection, schedule: Q01DX009 (ip), vehicle: water).

Consider `c1ccc(-c2cc(-c3ccccc3)on2)cc1`, for which the T/C is 95 % of control under setting [5]; 109 % of control (dose: 200.0 mg/kg/injection, schedule: Q01DX009 (ip), vehicle: saline with Tween-80); 104 % of control (dose: 400.0 mg/kg/injection, schedule: Q01DX009 (ip), vehicle: saline with Tween-80).

Take `O=C(CC(Cl)(C(F)(F)F)C(F)(F)F)c1cccc([N+](=O)[O-])c1`: the T/C is 113 % of control (dose: 12.5 mg/kg/injection, schedule: Q01DX001 (ip), vehicle: saline with Tween-80); 109 % of control (dose: 25.0 mg/kg/injection, schedule: Q01DX001 (ip), vehicle: saline with Tween-80); 109 % of control (dose: 50.0 mg/kg/injection, schedule: Q01DX001 (ip), vehicle: saline with Tween-80).
